Values after ≈ are worked out from the molar mass of the structure shown.
How the values were obtained:
[1] = test system: P-388 lymphocytic leukemia cells; test: cell culture assay using P-388 lymphocytic leukemia cells (cytotoxicity of N-debenzoyl-N-acyltaxols); format: cell-based; settings: Mus musculus, P388; P-388 cell culture; taxol reference; read-out: Absolute ED50
Description: For details of the cell culture assay, see Abbott, B. J., "Protocol 14 of Instruction 275," National Cancer Institute, National Institutes Of Health, Jan. 24, 1978. N-acyltaxol analogs are important analogs of taxol for anticancer treatment. The present invention provides a simple way of preparing such analogs from taxol or cephalomannine without removing the C-13 side-chain.
*Cytotoxicity is recorded as ED50 value relative to taxol determined
in the same assay. Absolute ED50 of taxol is approximately 0.03

[2] = in some assays; reported in literature; cited from earlier work

| SMILES | IC50 [1] [µg/mL] | activity relative to taxol [2] |
| --- | --- | --- |
| CC(=O)O[C@H]1C(=O)[C@@]2(C)[C@H]([C@H](OC(=O)c3ccccc3)[C@]3(O)C[C@H](OC(=O)[C@H](O)[C@@H](NC(=O)c4ccccc4)c4ccccc4)C(C)=C1C3(C)C)[C@]1(OC(C)=O)CO[C@@H]1C[C@@H]2O [taxol] | ~0.03 (≈ 0.0351 µM) |  |
| CC(=O)O[C@@]12CO[C@@H]1C[C@H](O)[C@@]1(C)C(=O)[C@H](O)C3=C(C)[C@@H](OC(=O)[C@H](O)[C@@H](NC(=O)OC(C)(C)C)c4ccccc4)C[C@@](O)([C@@H](OC(=O)c4ccccc4)[C@H]21)C3(C)C [taxotere] |  | approximately twice as active as taxol |

— US5470866A, “Method for the conversion of cephalomannine to taxol and for the preparation of n-acyl analogs of taxol” (Virginia Polytechnic Institute and State University, priority 1994, dated 1995)
